Results taken from US6699849B1, “Cyclodextrin complexes of benzodiazepines” (Cyclops, ehf., priority 1998, dated 2004).

How the values were obtained:
[1] = Effect of pH and cyclodextrins on the fraction of the open form (diazepine ring-opening) of benzodiazepines; assay type: physicochemical
Protocol: The cyclodextrin concentration was 10% (w/v) and the benzodiazepine concentration was 1×10^−4 M. The concentration of the closed form was determined immediately after dissolving the benzodiazepine in the aqueous cyclodextrin solution and again 24 hours later (i.e. after equilibration at 23° C.). Preliminary experiments had shown that equilibrium between the closed and the open form was attained within 3 hours at 23° C.

[2] = First-order rate constant of diazepine ring-closure (regeneration of the benzodiazepine); assay type: physicochemical; settings: pH 7.5, 37° C.
Protocol: The effect of cyclodextrins and organic solvents on the rate of diazepine ring-closure of several selected benzodiazepines was investigated. Stock solutions containing 1.0×10^−3 M of the benzodiazepine in 0.10 M aqueous hydrochloric acid solution (pH approx. 1.1) were prepared and stored at 37.0° C. The benzodiazepines were in the ring-open form in these stock solutions. Aqueous 0.50 M tris buffer (pH 7.50) solution was prepared. The observed first-order rate constant for the closing (i.e. formation) of the benzodiazepine ring was determined in the following reaction media: a) pure aqueous tris buffer solution; b) aqueous tris buffer solution containing 10% (w/v) cyclodextrin; c) tris buffer solution containing 10% (w/v) cyclodextrin and 10% (v/v) ethanol (EtOH); d) tris buffer solution containing 10% (w/v) cyclodextrin and 50% (v/v) EtOH; e) tris buffer solution containing 10% (w/v) cyclodextrin and 10% (v/v) dimethylsulfoxide (DMSO); and f) tris buffer solution containing 10% (w/v) cyclodextrin and 50% (w/v) DMSO. The stock solution (30 μl) was added to 1.50 ml of the reaction media which had previously been equilibrated to 37.0° C. and the first-order rate constant for the appearance of the closed form determined from the appearance of the closed form as observed on HPLC. Tables 5, 6 and 7 show the effects of cyclodextrins, EtOH and DMSO on the observed first-order rate constant for the regeneration of alprazolam, triazolam and midazolam, respectively. In pure aqueous buffer solutions, addition of EtOH and DMSO decreases somewhat the rate of ring closure, at least in the case of alprazolam and midazolam. Addition of cyclodextrin or the organic solvents have insignificant effect on the pH under these conditions. The dielectric constant of the reaction medium will, however, decrease upon addition of the organic solvents. It is possible that this decrease in the dielectric constant will reduce the ability of the reaction media to stabilize the transition state which could explain the decrease in the observed rate constant. […] The cyclodextrins formed stable complexes with the ring-open form of the drug and, thus, the rate decreased upon addition of cyclodextrin. […] EtOH and DMSO will compete with the diazepine ring-open form for a space in the cyclodextrin cavity resulting in decreased complexation.

[3] = Flux of alprazolam through hairless mouse skin in Franz diffusion cells
Protocol: Female hairless mice were sacrificed by cervical dislocation and their full-thickness skins removed. […] The skin was placed in Franz diffusion cells. The receptor phase consisted of phosphate buffer saline pH 7.4. The skin diffusion cells were stirred with a magnetic bar and kept at 37° C. by circulating water through an external jacket. […] The samples were kept frozen until analyzed by HPLC. The flux was calculated from the linear part of each permeability profile and the permeability coefficient obtained by dividing the flux with the concentration of dissolved drug in the donor phase.

[4] = Transdermal delivery of enalaprilat from 10% (w/v) HPβCD solutions, effect of heating with polymers; assay type: in vitro ADME; settings: for Flux Ratio (heated/un-heated): donor phase HPβCD, pH 5.0
Text: It is possible to enhance the cyclodextrin (CD) complexation efficacy, or efficiency, of drugs (D), and other “guest” molecules, by either increasing the apparent stability constant (KC) of the drug-cyclodextrin complex (D-CD) or increasing the apparent intrinsic solubility (S0) of the drug. For example, KC can be increased by addition of water-soluble polymers to the aqueous complexation media and S0 can be increased by ionization of the drug molecule, as described previously. […] On the other hand, if the drug-cyclodextrin complexes are prepared under conditions which ensure enhanced complexation and if the complexation efficiency decreases upon administration, then enhanced drug availability will be observed. Thus, the present invention involves: i) enhancement of the complexation efficiency and ii) reduction of the complexation efficiency after administration. For example, it is possible to enhance the complexation efficiency of many ionizable drugs by preparing the complexes at a pH where the drug is ionized but obtain decreased efficiency upon administration due to pH changes and consequent decreased ionization. One example of such a drug is phenytoin (pKa 8.1). […] However, if the pH 8.0 solution was placed in an environment which would decrease the pH from 8 to 5 (e.g. topical application to the skin), then a supersaturated solution would be formed which would result in enhanced drug availability (e.g. it would result in enhanced transdermal drug delivery). Other means to enhance S0 include reversible derivation (e.g. prodrug formation) of the guest molecule and addition of certain low molecular weight acids. The value of KC can, for example, be increased by addition of certain low molecular weight acids, by addition of water-soluble polymers to the aqueous complexation media or by using mixed solvent systems such as aqueous 10% (v/v) acetic acid. […] The effect of the polymers on the transdermal delivery of enalaprilat can, at least partly, be explained by decreased complexation efficiency (i.e. decrease in KC) at the skin surface.

[5] = 10% (w/v) HPβCD, pH 2, approx. 23° C.
[6] = 10% (w/v) HPβCD, pH 3, approx. 23° C.
[7] = 10% (w/v) HPβCD, pH 4, approx. 23° C.
[8] = 10% (w/v) SBEβCD, pH 2, approx. 23° C.
[9] = 10% (w/v) SBEβCD, pH 3, approx. 23° C.
[10] = 10% (w/v) SBEβCD, pH 4, approx. 23° C.
[11] = 10% (w/v) αCD, pH 2, approx. 23° C.
[12] = 10% (w/v) αCD, pH 3, approx. 23° C.
[13] = 10% (w/v) αCD, pH 4, approx. 23° C.
[14] = 10% (w/v) γCD, pH 2, approx. 23° C.
[15] = 10% (w/v) γCD, pH 3, approx. 23° C.
[16] = 10% (w/v) γCD, pH 4, approx. 23° C.
[17] = no cyclodextrin, pH 2, approx. 23° C.
[18] = no cyclodextrin, pH 3, approx. 23° C.
[19] = no cyclodextrin, pH 4, approx. 23° C.

SMILES | Fraction open [1, 5] | Fraction open [1, 6] | Fraction open [1, 7] | Fraction open [1, 8] | Fraction open [1, 9] | Fraction open [1, 10] | Fraction open [1, 11] | Fraction open [1, 12] | Fraction open [1, 13] | Fraction open [1, 14] | Fraction open [1, 15] | Fraction open [1, 16] | Fraction open [1, 17] | Fraction open [1, 18] | Fraction open [1, 19] | observed first-order rate constant, ring formation ([2]; 10% HPβCD, 10% DMSO) | observed first-order rate constant, ring formation ([2]; 10% HPβCD, 10% EtOH) | observed first-order rate constant, ring formation ([2]; 10% HPβCD, 50% DMSO) | observed first-order rate constant, ring formation ([2]; 10% HPβCD, 50% EtOH) | observed first-order rate constant, ring formation ([2]; 10% HPβCD, pure water) | other results
CN1C(=O)CN=C(c2ccccc2)c2cc(Cl)ccc21 [Diazepam] | 0.65 | 0.29 | 0.15 | 0.63 | 0.56 | 0.22 | 0.67 | 0.51 | 0.13 | 0.41 | 0.17 | 0.13 | 0.30 | 0.23 | 0.15 |  |  |  |  |  | 
Cc1nnc2n1-c1ccc(Cl)cc1C(c1ccccc1)=NC2 [alprazolam, 8-chloro-1-methyl-6-phenyl-4H-s-triazolo[4,3-a][1,4]benzodiazepine] | 0.89 | 0.60 | 0.23 | 0.96 | 0.84 | 0.33 | 0.94 | 0.79 | 0.25 | 0.81 | 0.41 | 0.42 | 0.82 | 0.56 | 0.33 | 444 min⁻¹ | 523 min⁻¹ | 857 min⁻¹ | 707 min⁻¹ | 330 min⁻¹ | share of drug in the open form ([1]; aqueous HPβCD solution, pH 3): about 60%; observed first-order rate constant, ring formation ([2]; 10% RMβCD, 10% DMSO): 397 min⁻¹; observed first-order rate constant, ring formation ([2]; 10% RMβCD, 10% EtOH): 490 min⁻¹; observed first-order rate constant, ring formation ([2]; 10% RMβCD, 50% DMSO): 792 min⁻¹; observed first-order rate constant, ring formation ([2]; 10% RMβCD, 50% EtOH): 670 min⁻¹; observed first-order rate constant, ring formation ([2]; 10% RMβCD, pure water): 297 min⁻¹; observed first-order rate constant, ring formation ([2]; 10% SBEβCD, 10% EtOH): 518 min⁻¹; observed first-order rate constant, ring formation ([2]; 10% SBEβCD, 50% DMSO): 936 min⁻¹; observed first-order rate constant, ring formation ([2]; 10% SBEβCD, 50% EtOH): 582 min⁻¹; observed first-order rate constant, ring formation ([2]; 10% SBEβCD, pure water): 311 min⁻¹; observed first-order rate constant, ring formation ([2]; No CD, 10% DMSO): 968 min⁻¹; observed first-order rate constant, ring formation ([2]; No CD, 10% EtOH): 1150 min⁻¹; observed first-order rate constant, ring formation ([2]; No CD, 50% DMSO): 1070 min⁻¹; observed first-order rate constant, ring formation ([2]; No CD, 50% EtOH): 724 min⁻¹; observed first-order rate constant, ring formation ([2]; No CD, pure water): 1420 min⁻¹; alprazolam concentration in the donor phase (saturated) ([3]; aqueous 7% (w/v) SBEβCD, pH 3.3): 1.85 mg/mL; Flux ([3]; donor 7% (w/v) SBEβCD pH 3.3, without increasing the pH): 3.91 × 10^−4 mg/cm^2/h; Flux ([3]; donor 7% (w/v) SBEβCD, increasing the pH from 3.3 to 4.1): 4.56 × 10^−4 mg/cm^2/h; Flux Ratio ([3]; increasing the pH from 3.3 to 4.1): 1.2; Flux Ratio ([3]; without increasing the pH): 1.0
C[C@H](N[C@@H](CCc1ccccc1)C(=O)O)C(=O)N1CCC[C@H]1C(=O)O [enalaprilat] |  |  |  |  |  |  |  |  |  |  |  |  |  |  |  |  |  |  |  |  | Flux Ratio (heated/un-heated) ([4]; 0.10% HPMC): 2.6; Flux Ratio (heated/un-heated) ([4]; 0.25% PVP): 1.4; effect of polymers on transdermal delivery ([4]; polymers added to unheated vehicles): did not enhance; effect of polymers on transdermal delivery ([4]; vehicles heated after addition of the polymers): significant enhancement
Cc1nnc2n1-c1ccc(Cl)cc1C(c1ccccc1Cl)=NC2 [triazolam, 8-chloro-6-(o-chlorophenyl)-1-methyl-4H-s-triazolo[4,3-a][1,4]benzodiazepine] | 0.51 | 0.09 | 0.00 | 0.71 | 0.25 | 0.00 | 0.75 | 0.23 | 0.00 | 0.33 | 0.01 | 0.00 | 0.53 | 0.08 | 0.00 | 0.0079 min⁻¹ | 0.0092 min⁻¹ | 0.0114 min⁻¹ | 0.0102 min⁻¹ | 0.0066 min⁻¹ | observed first-order rate constant, ring formation ([2]; 10% RMβCD, 10% DMSO): 0.0078 min⁻¹; observed first-order rate constant, ring formation ([2]; 10% RMβCD, 10% EtOH): 0.0092 min⁻¹; observed first-order rate constant, ring formation ([2]; 10% RMβCD, 50% DMSO): 0.0112 min⁻¹; observed first-order rate constant, ring formation ([2]; 10% RMβCD, 50% EtOH): 0.01 min⁻¹; observed first-order rate constant, ring formation ([2]; 10% RMβCD, pure water): 0.0064 min⁻¹; observed first-order rate constant, ring formation ([2]; 10% SBEβCD, 10% DMSO): 0.0073 min⁻¹; observed first-order rate constant, ring formation ([2]; 10% SBEβCD, 10% EtOH): 0.0082 min⁻¹; observed first-order rate constant, ring formation ([2]; 10% SBEβCD, 50% DMSO): 0.0113 min⁻¹; observed first-order rate constant, ring formation ([2]; 10% SBEβCD, 50% EtOH): 0.0097 min⁻¹; observed first-order rate constant, ring formation ([2]; 10% SBEβCD, pure water): 0.0058 min⁻¹; observed first-order rate constant, ring formation ([2]; No CD, 10% DMSO): 0.0128 min⁻¹; observed first-order rate constant, ring formation ([2]; No CD, 10% EtOH): 0.0131 min⁻¹; observed first-order rate constant, ring formation ([2]; No CD, 50% DMSO): 0.0137 min⁻¹; observed first-order rate constant, ring formation ([2]; No CD, 50% EtOH): 0.0184 min⁻¹; observed first-order rate constant, ring formation ([2]; No CD, pure water): 0.0132 min⁻¹
